Assay results published in patent US8450479B2, “3-substituted-4-oxo-3,4-dihydro-imidazo[5,1-d][1,2,3,5-tetrazine-8-carboxylic acid amides and their use” (Pharminox Limited, priority 2007, dated 2013).
Where “and” joins values, the source holds several entries; their conditions need not be identical. Equal entries are not always repeated. Where two headings read alike, the source gives them in different places.

Legend:
Format in all cases: cell-based
Glioma U373V (MGMT low) = assay: MTT assay for 7-day toxicity assay
Summary of the method: (§1)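 MGMT-transfected or vector-control glioma cells were seeded at 650 cells/well, attached overnight, and exposed for 7 days at 37 °C to compound at final 0.5–1000 μM. Viability was read by MTT (0.4 mg/mL, 4 h) formazan absorbance, with a day-0 plate included.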

Glioma U373M (MGMT+) = assay: MTT assay for 7-day toxicity assay
Summary of the method: as §1

Glioma SNB19M (MGMT+) = assay: MTT assay for 7-day toxicity assay
Summary of the method: as §1

Glioma SNB19V (MGMT−) = assay: MTT assay for 7-day toxicity assay
Summary of the method: as §1

[1] = tested on: glioma MGMT− and MGMT+ cell lines; assay: MTT assay, glioma lines as a whole; details: glioma MGMT− and MGMT+ cell lines
Description: This assay was first described in Mosmann, T., 1983, “Rapid colorimetric assay for cellular growth and survival: Application to proliferation and cytotoxicity assays”, Journal of Immunological Methods, Vol. 65, Nos. 1-2, pp. 55-63.
Glioma cell lines, SNB19 and U373, both MGMT transfected (i.e., SNB19M and U373M) and vector controls (i.e., SNB19V and U373V); colorectal carcinoma cell lines, HCT116, HT29, and DLD1; melanoma cell line, SKMEL-28; breast cell line, MCF-7; and normal human fetal lung fibroblast cell line, MRC-5; were harvested at 60-80% confluence—during the logarithmic phase of growth.
Following harvesting, cells in suspension were gently syringed through a 23 gauge needle to obtain a near-single cell suspension. The desired cell seeding densities were used and added into 96-well plates in 180 μL culture medium if only one test compound was to be added, or 160 μL if two test compounds were to be added in combination, which were allowed to attach at 37° C. (5% CO2) overnight. For the 7 day assay, the cell seeding density for different cell lines was as follows: SNB19V, SNB19M: 650 cells/well; U373V, U373M: 650 cells/well; SNB19VR, U373VR: 650 cells/well; HCT116, DLD-1, SKMEL-28, MRC-5, MCF-7: 400 cells/well.
The two peripheral lanes were used as blank wells (cell free) and filled with 200 μL of medium in order to minimise medium evaporation from the plate. A separate time zero (T0) plate was set up alongside other plates. Serial dilutions in tissue culture medium of a 100 mM stock of test compound in DMSO were prepared immediately before each assay to ten times the final concentrations required, and then 20 μL was added to each well (200 μL total media per well) to achieve final concentrations of 0.5 μM, 1 μM, 5 μM, 10 μM, 50 μM, 100 μM, 500 μM, and 1000 μM. A minimum of four wells received the same test compound concentration. To control wells, including those in the T0 plate, 20 μL of medium was added. Previous assays had been carried out to verify that cell viability was not affected by the amount of DMSO added into the test compound-treated wells. A separate plate treated in the same way, but free of test compound, was used as a measure of cell viability at the time of drug addition (day 0).
After incubation at 37° C., 5% CO2 for 7 days (or immediately for the day 0 plate), cell viability was quantified using the MTT assay. 50 μL of sterile filtered MIT (3-(4,5-dimethylthiazol-2-yl)-2,5-diphenyltetrazolium bromide) (2 mg/mL in phosphate buffered saline) were added to each well (final concentration 0.4 mg/mL) and the plates were re-incubated for 4 hours to allow metabolic conversion of MTT by dehydrogenases in viable cells to insoluble formazan crystals. The medium and any unconverted MTT was aspirated, 150 μL of DMSO was added to each well, and the plates were shaken on a plate shaker (Stuart Scientific 503) to ensure complete formazan solubilisation.
The intensity of absorbance is directly proportional to cell viability. A linear relationship exists between cell number and the amount of formazan and so the mean absorbance determined for each well of the same concentration can be used as a quantitative measure of viable cells compared to the controls. A graph of absorbance against drug concentration was plotted and the test compound concentration (GI50) causing 50% inhibition of control cell growth (absorbance increase from day 0) was calculated by interpolation.

[2] = Glioma U373V (MGMT low), read-out: GI50
[3] = Glioma U373M (MGMT+), read-out: GI50
[4] = Glioma SNB19M (MGMT+), read-out: GI50
[5] = Glioma SNB19V (MGMT−), read-out: GI50
[6] = 168 h, Glioma U373M (MGMT+), 7-day MTT, single determinations, read-out: GI50
[7] = Glioma U373M (MGMT+), 7-day MTT, single determinations, read-out: GI50
[8] = 168 h, Glioma SNB19M (MGMT+), 7-day MTT, single determinations, read-out: GI50
[9] = Glioma SNB19M (MGMT+), 7-day MTT, single determinations, read-out: GI50
[10] = 168 h, Glioma SNB19M (MGMT+), 7-day MTT, single determinations
[11] = Glioma SNB19V (MGMT−), 7-day MTT, single determinations

NC(=O)c1ncn2c(=O)n(CCl)nnc12 [PX-030]
GI50 (Glioma U373V (MGMT low); [2]): 34.8 µM and 23.8 µM | GI50 (Glioma U373M (MGMT+); [3]): 23.7 µM and 25.1 µM | GI50 (Glioma SNB19M (MGMT+); [4]): 36.6 µM and 25.4 µM | GI50 (Glioma SNB19V (MGMT−); [5]): 44.6 µM and 24.6 µM

C#CCn1nnc2c(C(N)=O)ncn2c1=O [EE-001, 3-Propargyl-8-carbamoylimidazotetrazin-4-one]
activity in words [1]: more potent than TMZ | GI50 (Glioma U373M (MGMT+); [6]): 45.1 µM | GI50 (Glioma U373M (MGMT+); [7]): 42.8 µM and 24.6 µM and 31.7 µM | GI50 (Glioma SNB19M (MGMT+); [8]): 26.9 µM | GI50 (Glioma SNB19M (MGMT+); [9]): 30.6 µM and 41.6 µM and 52.1 µM

CCOC(=O)Cn1nnc2c(C(N)=O)ncn2c1=O [PX-016]
activity in words [1]: surprising efficacy | GI50 (Glioma U373V (MGMT low); 168 h, Glioma U373V (MGMT low), 7-day MTT, single determinations, read-out: GI50): 49.9 µM | GI50 (Glioma U373V (MGMT low); Glioma U373V (MGMT low), 7-day MTT, single determinations, read-out: GI50): 59.6 µM and 73.8 µM and 69.5 µM | GI50 (Glioma U373M (MGMT+); [6]): 49.6 µM | GI50 (Glioma U373M (MGMT+); [7]): 62.5 µM and 54.7 µM | GI50 (Glioma SNB19M (MGMT+); [8]): 66.7 µM | GI50 (Glioma SNB19M (MGMT+); [9]): 54 µM and 61.7 µM and 61.8 µM | GI50 (Glioma SNB19V (MGMT−); 168 h, Glioma SNB19V (MGMT−), 7-day MTT, single determinations, read-out: GI50): 55.2 µM | GI50 (Glioma SNB19V (MGMT−); Glioma SNB19V (MGMT−), 7-day MTT, single determinations, read-out: GI50): 48.7 µM and 57.3 µM and 48.4 µM

C[C@H](c1ccccc1)n1nnc2c(C(N)=O)ncn2c1=O [BB-001, (R)-3-(-1-Phenylethyl)-8-carbamoylimidazotetrazin-4-one]
GI50 (Glioma U373V (MGMT low); 168 h, Glioma U373V (MGMT low), 7-day MTT, single determinations): 49 µM | GI50 (Glioma U373V (MGMT low); Glioma U373V (MGMT low), 7-day MTT, single determinations): 71.3 µM | GI50 (Glioma U373M (MGMT+); 168 h, Glioma U373M (MGMT+), 7-day MTT, single determinations): 67.1 µM | GI50 (Glioma U373M (MGMT+); Glioma U373M (MGMT+), 7-day MTT, single determinations): 79.6 µM | GI50 (Glioma SNB19M (MGMT+); [10]): 46.1 µM | GI50 (Glioma SNB19M (MGMT+); Glioma SNB19M (MGMT+), 7-day MTT, single determinations): 53.4 µM | GI50 (Glioma SNB19V (MGMT−); 168 h, Glioma SNB19V (MGMT−), 7-day MTT, single determinations): 33.6 µM | GI50 (Glioma SNB19V (MGMT−); [11]): 31.8 µM

COCn1nnc2c(C(N)=O)ncn2c1=O [PX-020]
activity in words [1]: surprising efficacious | GI50 (Glioma U373V (MGMT low); [2]): 21.3 µM and 22 µM and 30.2 µM and 30.4 µM | GI50 (Glioma U373M (MGMT+); [3]): 26.5 µM and 39.6 µM | GI50 (Glioma SNB19M (MGMT+); [4]): 28.7 µM and 26.6 µM and 43.4 µM

Cn1nnc2c(C(N)=O)ncn2c1=O [TMZ, 3-Methyl-4-oxo-3,4-dihydro-imidazo[5,1-d][1,2,3,5]tetrazine-8-carboxylic acid amide, reference compound]
activity in words [1]: demonstrably more active in the glioma lines which are MGMT− | GI50 (Glioma U373V (MGMT low); Glioma U373V (MGMT low)): 68 µM | GI50 (Glioma U373V (MGMT low); read-out: TMZ GI50 Average, Glioma U373V (MGMT low), average of Table 1): 68 µM | GI50 (Glioma U373M (MGMT+); Glioma U373M (MGMT+)): 369 µM | GI50 (Glioma U373M (MGMT+); read-out: TMZ GI50 Average, Glioma U373M (MGMT+), average of Table 1): 369 µM | GI50 (Glioma SNB19M (MGMT+); [10]): 464 µM | GI50 (Glioma SNB19M (MGMT+); Glioma SNB19M (MGMT+)): 470 µM | GI50 (Glioma SNB19M (MGMT+); read-out: TMZ GI50 Average, Glioma SNB19M (MGMT+), average of Table 1): 470 µM | GI50 (Glioma SNB19V (MGMT−); Glioma SNB19V (MGMT−)): 35.7 µM | GI50 (Glioma SNB19V (MGMT−); [11]): 27.6 µM | GI50 (Glioma SNB19V (MGMT−); read-out: TMZ GI50 Average, Glioma SNB19V (MGMT−), average of Table 1): 35.7 µM

C[Si](C)(C)CCOCn1nnc2c(C(N)=O)ncn2c1=O [PX-021]
activity in words [1]: surprising efficacious | GI50 (Glioma U373V (MGMT low); [2]): 28.2 µM and 22.3 µM and 25.5 µM | GI50 (Glioma U373M (MGMT+); [3]): 27.2 µM and 23.6 µM and 21.9 µM | GI50 (Glioma SNB19M (MGMT+); [4]): 26.7 µM and 29.1 µM | GI50 (Glioma SNB19V (MGMT−); [5]): 36 µM and 26.9 µM and 26.8 µM

C[S+]([O-])Cn1nnc2c(C(N)=O)ncn2c1=O (stereo not shown) [UU-003, 3-Methanesulfinylmethyl-4-oxo-3,4-dihydro-imidazo[5,1-d][1,2,3,5]tetrazine-8-carboxylic acid amide]
activity in words [1]: surprising efficacy | GI50 (Glioma U373M (MGMT+); [3]): 4.6 µM and 8.6 µM and 7.6 µM and 8.2 µM | GI50 (Glioma SNB19V (MGMT−); [5]): 30.3 µM and 38.1 µM and 25.3 µM and 21.8 µM
